# Reference: ChEMBL document CHEMBL5370677, “Emopamil-Binding Protein Inhibitors for Treating Multiple Sclerosis” (ACS Med Chem Lett, 2023)
# Target: 3-beta-hydroxysteroid-Delta(8),Delta(7)-isomerase (Homo sapiens, UniProt Q15125)
# Test: Inhibition of EBP derived from HEK293T cells using zymosterol-d5 as substrate preincubated for 30 mins followed by substrate addition measured after 4 hrs by LC-APCI MRM MS analysis
# Assay type: cell-based
# 3-beta-hydroxysteroid-Delta(8),Delta(7)-isomerase, sequence (Q15125 whole entry): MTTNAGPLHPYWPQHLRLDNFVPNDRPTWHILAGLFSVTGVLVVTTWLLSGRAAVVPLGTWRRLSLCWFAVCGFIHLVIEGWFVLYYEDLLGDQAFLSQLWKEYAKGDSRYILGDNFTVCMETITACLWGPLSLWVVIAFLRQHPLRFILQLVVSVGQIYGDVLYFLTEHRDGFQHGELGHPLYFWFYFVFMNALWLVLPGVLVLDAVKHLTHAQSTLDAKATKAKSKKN
row,IC50 [nM],SMILES
1,< 100,O=S(=O)(c1coc(C(F)(F)F)c1)N1CCC2(CCC(N3CC4(COC4)C3)C2)CC1 (stereo unspecified)
2,< 100,O=S(=O)(c1ccc(F)cc1)N1CCC2(CCC(N3CC4(COC4)C3)C2)CC1 (stereo unspecified)
3,< 100,O=S(=O)(c1ccc2c(c1)OCCO2)N1CCC2(CCC(N3CC4(COC4)C3)C2)CC1 (stereo unspecified)
4,< 100,COc1nccc(S(=O)(=O)N2CCC3(CCC(N4CCOCC4)C3)CC2)c1F (stereo unspecified)
5,< 100,Cc1nc(C(F)(F)F)ncc1S(=O)(=O)N1CCC2(CC1)CC(N(C)C1CC3(COC3)C1)CO2 (stereo unspecified)
6,< 100,Cn1nc(C2CC2)cc1S(=O)(=O)N1CCC2(CC1)CC(NC1CCOCC1)C2
